pEC50: −log10 of the molar value. Peptide text beside a SMILES is read from it.

Among the data in patent US7192924B2, “Corticotropin releasing factor 2 receptor agonists” (priority 2002, dated 2007) are EC50 values, retold here.

One assay has as its target T1, CRF1R (Homo sapiens, UniProt P34998).
T1 sequence (P34998 24-415): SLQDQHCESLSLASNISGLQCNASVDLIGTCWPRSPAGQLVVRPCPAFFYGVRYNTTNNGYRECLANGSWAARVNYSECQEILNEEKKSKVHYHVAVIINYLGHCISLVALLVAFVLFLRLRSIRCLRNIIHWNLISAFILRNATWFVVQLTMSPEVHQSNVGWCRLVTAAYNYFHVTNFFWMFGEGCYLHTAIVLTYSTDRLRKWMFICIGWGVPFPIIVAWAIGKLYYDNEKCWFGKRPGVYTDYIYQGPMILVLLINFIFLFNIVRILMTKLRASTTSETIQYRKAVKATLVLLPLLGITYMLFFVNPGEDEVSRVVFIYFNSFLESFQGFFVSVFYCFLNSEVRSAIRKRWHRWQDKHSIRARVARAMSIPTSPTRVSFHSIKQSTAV
The assay can be described thus: CRF1R agonist activity (EC50, Emax), called comparative CRF binding. It counts as cell-based. To be noted: read-out: CRF1R EC50. The source says:
(§1) The pharmacological activity and selectivity of the peptides of present invention can be determined using published test procedures. See, e.g, U.S. patent application Ser. No. 09/799,978. Because CRF2R and CRF1R are homologous proteins, it is expected that a certain proportion of agonists for CRF2R will also function as agonists of CRF1R. As discussed above, activation of CRF1R induces activation of the HPA axis since increased corticosteroid production leads to skeletal muscle atrophy. In most cases in which an increase in muscle mass or function is desired, it is not desirable to activate the HPA axis.
(§2) Because it is desirable to discriminate binding between CRF2R, as compared with CRF1R, the assays described above may be conducted using a cell, or membrane from a cell, which expresses only CRF2R or the assays can be conducted with a recombinant source of CRF2R. Cells expressing both forms of CRFR may be modified using homologous recombination to inactivate or otherwise disable the CRF1R gene. Alternatively, if the source of CRFR contains more than one CRFR type, the background signal produced by the receptor which is not of interest must be subtracted from the signal obtained in the assay. […] Known antagonists of CRFRs include, but, are not limited to, antalarmin (CRF1R selective), antisauvagine-30 (CRF2R selective) and astressin (nonselective for CRF1R/CRF2R).
(§3) Cell-based assays include the steps of contacting cells which express CRF1R or CRF2R with a peptide of the present invention or control and measuring activation of the CRFR by measuring the expression or activity of components of the CRFR signal transduction pathways.
(§4) As described in the background section above, CRFRs appear to couple through several different pathways including Gαs, Gαq or Gαi, depending upon the cell type. It is thought that agonist activation of CRFR allows the receptor to signal via any of these pathways, provided that the necessary pathway components are present in the particular cell type. Thus, to assay a particular peptide of the present invention for CRFR activation, an assay can use any of the signal transduction pathways as the readout even if the relevant cell type for treatment, in vivo, couples CRFR to skeletal muscle atrophy via a different pathway. […] Assays for measuring activation of these signaling pathways are known in the art.
(§5) For example, after contact with a peptide of the present invention, lysates of the cells can be prepared and assayed for induction of cAMP. cAMP is induced in response to Gαs activation. Because Gαs is activated by receptors other than CRFR and because a test peptide may be exerting its effect through CRFRs or by another mechanism, two control comparisons are relevant for determining whether the peptide increases levels of cAMP via activation of a CRFR. One control compares the cAMP level of cells contacted with the peptide and the cAMP level of cells contacted with a control compound (i.e., the vehicle in which the peptide is dissolved).
(§6) In one example, cAMP induction is measured with the use of DNA constructs containing the cAMP responsive element linked to any of a variety of reporter genes can be introduced into cells expressing CRFRs. Such reporter genes include, but are not limited to, chloramphenicol acetyltransferase (CAT), luciferase, glucuronide synthetase, growth hormone, fluorescent proteins (e.g., Green Fluorescent Protein), or alkaline phosphatase. Following exposure of the cells to the peptide, the level of reporter gene expression can be quantitated to determine the peptide's ability to increase cAMP levels and thus determine the peptide's ability to activate the CRFR.
(§7) In addition to using cells expressing full length CRFRs, cells can be engineered which express CRFRs containing the ligand binding domain of the receptor coupled to, or physically modified to contain, reporter elements or to interact with signaling proteins.

The next assay concerns the target T2, CRF2R (Homo sapiens, UniProt Q13324).
T2 sequence (Q13324 1-411): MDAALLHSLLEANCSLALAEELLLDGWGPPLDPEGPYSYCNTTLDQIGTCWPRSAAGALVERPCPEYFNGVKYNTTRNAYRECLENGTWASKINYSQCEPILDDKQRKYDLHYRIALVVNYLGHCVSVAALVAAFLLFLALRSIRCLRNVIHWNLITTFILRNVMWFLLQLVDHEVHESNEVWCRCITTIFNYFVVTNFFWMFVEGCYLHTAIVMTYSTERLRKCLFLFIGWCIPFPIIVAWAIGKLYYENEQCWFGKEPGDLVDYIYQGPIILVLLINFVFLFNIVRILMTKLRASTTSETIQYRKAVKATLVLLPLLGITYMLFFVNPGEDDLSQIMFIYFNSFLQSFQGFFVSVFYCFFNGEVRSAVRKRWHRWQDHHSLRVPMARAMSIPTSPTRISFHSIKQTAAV
The assay can be described thus: CRF2R agonist activity (EC50, Emax), called comparative CRF binding. It is filed as cell-based. To be noted: read-out: CRF2R EC50.
Excerpt: as §1, §2, §3, §4, §5, §6, §7

On to `CC[C@H](C)[C@H](N)C(=O)N[C@H](C(=O)N[C@@H](CC(C)C)C(=O)N[C@@H](CO)C(=O)N[C@@H](CC(C)C)C(=O)N[C@@H](CC(=O)O)C(=O)N[C@H](C(=O)N1CCC[C@H]1C(=O)N[C@H](C(=O)NCC(=O)N[C@@H](CC(C)C)C(=O)N[C@@H](CC(C)C)C(=O)N[C@@H](CCC(N)=O)C(=O)N[C@H](C(=O)N[C@@H](CC(C)C)C(=O)N[C@@H](CC(C)C)C(=O)N[C@@H](CCC(=O)O)C(=O)N[C@@H](CCC(N)=O)C(=O)N[C@@H](CCC(=O)O)C(=O)N[C@@H](CCCCN)C(=O)N[C@@H](C)C(=O)N[C@@H](CCCNC(=N)N)C(=O)N[C@@H](C)C(=O)N[C@@H](C)C(=O)N[C@@H](CCCNC(=N)N)C(=O)N[C@@H](CCC(=O)O)C(=O)N[C@@H](CCC(N)=O)C(=O)N[C@@H](C)C(=O)N[C@H](C(=O)N[C@H](C(=O)N[C@@H](CC(N)=O)C(=O)N[C@@H](C)C(=O)N[C@@H](CCCNC(=N)N)C(=O)N[C@H](C(=O)N[C@@H](CC(C)C)C(=O)N[C@@H](C)C(=O)N[C@@H](CCCNC(=N)N)C(=O)N[C@H](C(N)=O)C(C)C)[C@@H](C)CC)[C@@H](C)O)[C@@H](C)O)[C@@H](C)CC)[C@@H](C)CC)C(C)C)C(C)C` [compound 107] (H-IVLSLDVPIGLLQILLEQEKARAAREQATTNARILARV-NH2), for which the pEC50 at CRF1R was not above 6.00.

Take `CC[C@H](C)[C@H](N)C(=O)N[C@H](C(=O)N[C@@H](CC(C)C)C(=O)N[C@@H](CO)C(=O)N[C@@H](CC(C)C)C(=O)N[C@@H](CC(=O)O)C(=O)N[C@H](C(=O)N1CCC[C@H]1C(=O)N[C@H](C(=O)NCC(=O)N[C@@H](CC(C)C)C(=O)N[C@@H](CC(C)C)C(=O)N[C@@H](CCC(N)=O)C(=O)N[C@H](C(=O)N[C@@H](CC(C)C)C(=O)N[C@@H](CC(C)C)C(=O)N[C@@H](CCC(=O)O)C(=O)N[C@@H](CCC(N)=O)C(=O)N[C@@H](CCC(=O)O)C(=O)N[C@@H](CCCCN)C(=O)N[C@@H](C)C(=O)N[C@@H](CCCNC(=N)N)C(=O)N[C@@H](C)C(=O)N[C@@H](C)C(=O)N[C@@H](CCCNC(=N)N)C(=O)N[C@@H](CCC(=O)O)C(=O)N[C@@H](CCC(N)=O)C(=O)N[C@@H](C)C(=O)N[C@H](C(=O)N[C@H](C(=O)N[C@@H](CC(N)=O)C(=O)N[C@@H](C)C(=O)N[C@@H](CCCNC(=N)N)C(=O)N[C@H](C(=O)N[C@@H](CC(C)C)C(=O)N[C@@H](C)C(=O)N[C@@H](CCCNC(=N)N)C(=O)N[C@H](C(N)=O)C(C)C)[C@@H](C)CC)[C@@H](C)O)[C@@H](C)O)[C@@H](C)CC)[C@@H](C)CC)C(C)C)C(C)C` [compound 325] (H-IVLSLDVPIGLLQILLEQEKARAAREQATTNARILARV-NH2): the pEC50 at CRF2R was 7.93.

`CC[C@H](C)[C@H](NC(=O)[C@H](C)NC(=O)[C@H](CC(N)=O)NC(=O)[C@H](CCC(N)=O)NC(=O)[C@H](CCC(=O)O)NC(=O)[C@H](C)NC(=O)[C@H](CCCNC(=N)N)NC(=O)[C@H](CCC(=O)O)NC(=O)[C@H](CCCNC(=N)N)NC(=O)[C@H](CCC(N)=O)NC(=O)[C@H](CO)NC(=O)[C@H](CCC(N)=O)NC(=O)[C@@H](NC(=O)[C@H](CCCCN)NC(=O)[C@H](CCC(=O)O)NC(=O)[C@H](CC(C)C)NC(=O)[C@H](CCC(=O)O)NC(=O)[C@H](CC(C)C)NC(=O)[C@H](CC(C)C)NC(=O)[C@@H](NC(=O)[C@H](CCCNC(=N)N)NC(=O)[C@H](CC(C)C)NC(=O)[C@H](CC(C)C)NC(=O)[C@H](CC(C)C)NC(=O)[C@H](CC(C)C)NC(=O)[C@@H]1CCCN1C(=O)[C@H](CC(C)C)NC(=O)[C@H](CC(=O)O)NC(=O)[C@@H](NC(=O)[C@H](CO)NC(=O)[C@H](CC(C)C)NC(=O)[C@H](CO)NC(=O)[C@@H]1CCCN1C(=O)[C@H](CC(N)=O)NC(=O)[C@@H](N)CC(=O)O)[C@@H](C)CC)[C@@H](C)O)[C@@H](C)O)C(=O)N[C@H](C(=O)N[C@@H](Cc1ccccc1)C(=O)N[C@@H](C)C(=O)N[C@@H](CO)C(=O)N[C@H](C(N)=O)C(C)C)[C@@H](C)CC` [compound 346] (H-DNPSLSIDLPLLLLRTLLELEKTQSQRERAEQNAIIFASV-NH2): the pEC50 at CRF2R is 8.07.

On to `CC[C@H](C)[C@H](NC(=O)[C@H](C)NC(=O)[C@H](CC(N)=O)NC(=O)[C@H](CCC(N)=O)NC(=O)[C@H](CCC(=O)O)NC(=O)[C@H](C)NC(=O)[C@H](CCCNC(=N)N)NC(=O)[C@H](CCC(=O)O)NC(=O)[C@H](CCCNC(=N)N)NC(=O)[C@H](CCC(N)=O)NC(=O)[C@H](CO)NC(=O)[C@H](CCC(N)=O)NC(=O)[C@@H](NC(=O)[C@H](CCCCN)NC(=O)[C@H](CCC(=O)O)NC(=O)[C@H](CC(C)C)NC(=O)[C@H](CCC(=O)O)NC(=O)[C@H](CC(C)C)NC(=O)[C@H](CC(C)C)NC(=O)[C@@H](NC(=O)[C@H](CCCNC(=N)N)NC(=O)[C@H](CC(C)C)NC(=O)[C@H](CC(C)C)NC(=O)[C@H](CC(C)C)NC(=O)[C@H](CC(C)C)NC(=O)[C@@H]1CCCN1C(=O)[C@H](CC(C)C)NC(=O)[C@H](CC(=O)O)NC(=O)[C@@H](NC(=O)[C@H](CO)NC(=O)[C@H](CC(C)C)NC(=O)[C@H](CO)NC(=O)[C@@H]1CCCN1)[C@@H](C)CC)[C@@H](C)O)[C@@H](C)O)C(=O)N[C@H](C(=O)N[C@@H](Cc1ccccc1)C(=O)N[C@@H](C)C(=O)N[C@@H](CO)C(=O)N[C@H](C(N)=O)C(C)C)[C@@H](C)CC` [compound 348] (H-PSLSIDLPLLLLRTLLELEKTQSQRERAEQNAIIFASV-NH2), for which, at CRF2R, the pEC50 is 8.24.

Consider `CC[C@H](C)[C@H](N)C(=O)N[C@H](C(=O)N[C@@H](CC(C)C)C(=O)N[C@@H](CO)C(=O)N[C@@H](CC(C)C)C(=O)N[C@@H](CC(=O)O)C(=O)N[C@H](C(=O)N1CCC[C@H]1C(=O)N[C@H](C(=O)NCC(=O)N[C@@H](CC(C)C)C(=O)N[C@@H](CC(C)C)C(=O)N[C@@H](CCC(N)=O)C(=O)N[C@H](C(=O)N[C@@H](CC(C)C)C(=O)N[C@@H](CC(C)C)C(=O)N[C@@H](CCC(=O)O)C(=O)N[C@@H](CCC(N)=O)C(=O)N[C@@H](C)C(=O)N[C@@H](CCCNC(=N)N)C(=O)N[C@@H](C)C(=O)N[C@@H](CCCNC(=N)N)C(=O)N[C@@H](C)C(=O)N[C@@H](C)C(=O)N[C@@H](CCCNC(=N)N)C(=O)N[C@@H](CCC(=O)O)C(=O)N[C@@H](CCC(N)=O)C(=O)N[C@@H](C)C(=O)N[C@H](C(=O)N[C@H](C(=O)N[C@@H](CC(N)=O)C(=O)N[C@@H](C)C(=O)N[C@@H](CCCNC(=N)N)C(=O)N[C@H](C(=O)N[C@@H](CC(C)C)C(=O)N[C@@H](C)C(=O)N[C@@H](CCCNC(=N)N)C(=O)N[C@H](C(=O)N[C@@H](CCSC)C(N)=O)C(C)C)[C@@H](C)CC)[C@@H](C)O)[C@@H](C)O)[C@@H](C)CC)[C@@H](C)CC)C(C)C)C(C)C` [compound 356] (H-IVLSLDVPIGLLQILLEQARARAAREQATTNARILARVM-NH2; N-terminus assumed), for which the pEC50 at CRF2R is 7.08.
